Relative viability data for 1 cell line are collected here from the supplement of paper PMC10307832.

Holding throughout (experiment): relative viability (nuclei count vs DMSO), 5 days (fraction); higher = more cells survive
Compound in the assay “CUDC-101 + Crizotinib”: C#Cc1cccc(Nc2ncnc3cc(OC)c(OCCCCCCC(=O)NO)cc23)c1 [CUDC-101] + C[C@@H](Oc1cc(-c2cnn(C3CCNCC3)c2)cnc1N)c1c(Cl)ccc(F)c1Cl [Crizotinib] (partner 1 µM)
An outline of the steps: (§1)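 Lung cancer cell lines were pin-tool dosed in 1536-well plates on the day after seeding, with either a lone drug or a fixed anchor-drug dose plus five library-drug doses (not always all listed) in √10 steps. Nuclei were counted on 4× images after 5 days. Relative viability is the ratio of treated-well to vehicle-well nuclei counts, with each value a median of duplicate plates.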

Compound in the assay “Vandetanib + Foretinib”: COc1cc2/c(=N/c3ccc(Br)cc3F)nc[nH]c2cc1OCC1CCN(C)CC1 [Vandetanib] + COc1cc2c(Oc3ccc(NC(=O)C4(C(=O)Nc5ccc(F)cc5)CC4)cc3F)ccnc2cc1OCCCN1CCOCC1 [Foretinib] (partner 0.25 µM)
An outline of the steps:
as §1

Compound in the assay “Vandetanib + OSI-027”: COc1cc2/c(=N/c3ccc(Br)cc3F)nc[nH]c2cc1OCC1CCN(C)CC1 [Vandetanib] + COc1cccc2cc(-c3nc([C@H]4CC[C@H](C(=O)O)CC4)n4ncnc(N)c34)[nH]c12 [OSI-027] (partner 0.5 µM)
Put shortly: as §1

Compound in the assay “CUDC-101 + Trametinib”: C#Cc1cccc(Nc2ncnc3cc(OC)c(OCCCCCCC(=O)NO)cc23)c1 [CUDC-101] + CC(=O)Nc1cccc(-n2c(=O)n(C3CC3)c(=O)c3c(Nc4ccc(I)cc4F)n(C)c(=O)c(C)c32)c1 [Trametinib] (partner 0.02 µM)
Put shortly: as §1

With UMC-11, the relative viability in the assay with CUDC-101 + Crizotinib (first compound 0.01 µM) amounted to 0.67; with CUDC-101 + Crizotinib (first compound 0.03162 µM), 0.577; in the assay with CUDC-101 + Crizotinib (first compound 0.1 µM) it was 0.404; with CUDC-101 + Crizotinib (first compound 0.3162 µM), 0.215; in the assay with CUDC-101 + Crizotinib (first compound 1 µM) it was 0.136; with Vandetanib + Foretinib (first compound 0.02 µM), 1.05. The relative viability with Vandetanib + Foretinib (first compound 0.06325 µM) is 1.01; with Vandetanib + Foretinib (first compound 0.2 µM), 0.281; with Vandetanib + Foretinib (first compound 0.6325 µM) it was 0.962; with Vandetanib + Foretinib (first compound 2 µM) it was 0.97; with Vandetanib + OSI-027 (first compound 0.02 µM), 0.472; with Vandetanib + OSI-027 (first compound 0.06325 µM), 0.416. For the same cell line, the relative viability was 0.45 with Vandetanib + OSI-027 (first compound 0.2 µM); 0.443 with Vandetanib + OSI-027 (first compound 0.6325 µM); 0.467 with Vandetanib + OSI-027 (first compound 2 µM); 0.727 with CUDC-101 + Trametinib (first compound 0.01 µM); 0.761 with CUDC-101 + Trametinib (first compound 0.03162 µM); 0.578 in the assay with CUDC-101 + Trametinib (first compound 0.1 µM). The relative viability is 0.399 with CUDC-101 + Trametinib (first compound 0.3162 µM) and 0.127 in the assay with CUDC-101 + Trametinib (first compound 1 µM).
